The text below walks through data of patent US9834571B2, “Compounds for inhibiting cell proliferation in EGFR-driven cancers” (ARIAD Pharmaceuticals, Inc., priority 2012, dated 2017).

Read-outs that look alike come from different tables or passages of the source.

For test [1], the target named is EGFR L858R/T790M (Homo sapiens, UniProt P00533, L858R/T790M). The test is described as follows: Kinase inhibitory activity against EGFR bearing the L858R/T790M double mutation. It is filed as biochemical. The conditions noted are these: 10 μM ATP, read-out: IC50 for kinase inhibition, EGFR L858R T790M. Summed up: (§1)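 Kinase inhibition was measured against native human EGFR and the L858R and L858R/T790M mutants. Compounds were run as 10-point curves in singlicate from a 3 μM top concentration, with 10 μM ATP.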

Test [2] relates to BaF3 cells expressing wildtype EGFR. The test is described as follows: Antiproliferative activity (MTT) against control BaF3 cells expressing wildtype EGFR. It is filed as cell-based. The conditions noted are these: Mus musculus. Summed up:
(§2)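 Viability by MTT colorimetry. Cells: BaF3 transfected with mutant EGFR, plus a wildtype-EGFR BaF3 counter-screen.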

In test [3] the target is EGFR L858R (Homo sapiens, UniProt P00533, L858R). In words: Kinase inhibitory activity against EGFR bearing the L858R mutation. The test is classed as biochemical. The conditions noted are these: 10 μM ATP, read-out: IC50 for kinase inhibition, EGFR L858R. Summed up:
as §1

Test [4] deals with human EGFR (native sequence) (Homo sapiens, UniProt P00533). In words: Kinase inhibitory activity against human EGFR (native sequence). It is filed as biochemical. To be noted: 10 μM ATP, read-out: IC50 for kinase inhibition, EGFR. Summed up: as §1
For test [5], the target named is T1, BaF3 cells expressing the target EGFR mutations (Homo sapiens, UniProt P00533, T790M, cells depend on it, form not given).
T1 construct: IC50, BAF3 EGFR DEL T790M PURO POOL; other: BAF3 EGFR DEL T790M PURO POOL cells, MTT; other: BAF3 EGFR DEL T790M PURO POOL cells; MTT
In words: Antiproliferative activity (MTT) against BaF3 cells expressing the target EGFR mutations. It is filed as cell-based. To be noted: BAF3 EGFR DEL T790M PURO POOL cells, read-out: IC50, BAF3 EGFR DEL T790M PURO POOL. Summed up:
as §2

Test [6] addresses T2, BaF3 cells expressing the target EGFR mutations (Homo sapiens, UniProt P00533, T790M/L858R, cells depend on it).
T2 construct: IC50, BAF3 EGFR L858R-T790M PURO POOL; other: BAF3 EGFR L858R-T790M PURO POOL cells, MTT; IC50, BAF3 EGFR L858R-T790M PURO POOL; other: BAF3 EGFR L858R-T790M PURO POOL cells; MTT
Described as above. It is filed as cell-based. To be noted: BAF3 EGFR L858R-T790M PURO POOL cells, read-out: IC50, BAF3 EGFR L858R-T790M PURO POOL. Summed up: as §2

Setting [7] is: EGFR L858R/T790M double mutation.
The mark [8] stands for this setting: 10 pt curves, 3 μM top concentration.

T2 sequence (P00533 whole entry T790M/L858R): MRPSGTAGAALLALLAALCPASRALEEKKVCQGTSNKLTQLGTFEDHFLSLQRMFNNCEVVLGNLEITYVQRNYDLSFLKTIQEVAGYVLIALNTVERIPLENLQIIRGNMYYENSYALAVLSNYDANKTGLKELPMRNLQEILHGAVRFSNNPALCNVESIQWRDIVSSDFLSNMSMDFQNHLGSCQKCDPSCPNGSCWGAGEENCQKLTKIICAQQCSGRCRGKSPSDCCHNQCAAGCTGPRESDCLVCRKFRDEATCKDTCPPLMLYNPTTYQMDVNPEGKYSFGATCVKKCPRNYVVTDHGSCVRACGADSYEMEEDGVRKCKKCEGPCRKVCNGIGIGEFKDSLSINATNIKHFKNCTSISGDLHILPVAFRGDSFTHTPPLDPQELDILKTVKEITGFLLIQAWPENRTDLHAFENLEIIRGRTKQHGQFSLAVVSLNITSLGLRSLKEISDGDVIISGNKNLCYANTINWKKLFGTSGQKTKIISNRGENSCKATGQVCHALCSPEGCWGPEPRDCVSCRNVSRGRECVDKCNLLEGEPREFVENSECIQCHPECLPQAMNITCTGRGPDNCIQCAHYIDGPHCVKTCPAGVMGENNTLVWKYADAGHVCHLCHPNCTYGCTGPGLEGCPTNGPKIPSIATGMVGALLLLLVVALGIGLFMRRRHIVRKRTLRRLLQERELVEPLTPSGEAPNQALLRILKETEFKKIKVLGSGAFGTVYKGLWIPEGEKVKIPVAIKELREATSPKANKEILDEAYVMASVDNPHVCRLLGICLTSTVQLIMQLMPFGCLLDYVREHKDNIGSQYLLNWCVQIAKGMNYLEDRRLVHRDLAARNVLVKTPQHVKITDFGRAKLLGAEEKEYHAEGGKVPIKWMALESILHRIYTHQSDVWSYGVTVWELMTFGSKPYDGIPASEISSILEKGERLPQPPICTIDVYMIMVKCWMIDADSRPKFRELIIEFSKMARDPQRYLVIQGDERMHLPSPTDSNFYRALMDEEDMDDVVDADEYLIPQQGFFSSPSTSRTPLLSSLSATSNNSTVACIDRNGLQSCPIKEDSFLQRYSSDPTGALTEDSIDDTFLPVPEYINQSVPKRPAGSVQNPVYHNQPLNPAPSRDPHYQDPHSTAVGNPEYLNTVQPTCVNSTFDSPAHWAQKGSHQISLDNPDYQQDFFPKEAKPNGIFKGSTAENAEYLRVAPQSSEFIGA
T1 sequence (P00533 with tags, fused parts or gaps DEL746-750/T790M, form open): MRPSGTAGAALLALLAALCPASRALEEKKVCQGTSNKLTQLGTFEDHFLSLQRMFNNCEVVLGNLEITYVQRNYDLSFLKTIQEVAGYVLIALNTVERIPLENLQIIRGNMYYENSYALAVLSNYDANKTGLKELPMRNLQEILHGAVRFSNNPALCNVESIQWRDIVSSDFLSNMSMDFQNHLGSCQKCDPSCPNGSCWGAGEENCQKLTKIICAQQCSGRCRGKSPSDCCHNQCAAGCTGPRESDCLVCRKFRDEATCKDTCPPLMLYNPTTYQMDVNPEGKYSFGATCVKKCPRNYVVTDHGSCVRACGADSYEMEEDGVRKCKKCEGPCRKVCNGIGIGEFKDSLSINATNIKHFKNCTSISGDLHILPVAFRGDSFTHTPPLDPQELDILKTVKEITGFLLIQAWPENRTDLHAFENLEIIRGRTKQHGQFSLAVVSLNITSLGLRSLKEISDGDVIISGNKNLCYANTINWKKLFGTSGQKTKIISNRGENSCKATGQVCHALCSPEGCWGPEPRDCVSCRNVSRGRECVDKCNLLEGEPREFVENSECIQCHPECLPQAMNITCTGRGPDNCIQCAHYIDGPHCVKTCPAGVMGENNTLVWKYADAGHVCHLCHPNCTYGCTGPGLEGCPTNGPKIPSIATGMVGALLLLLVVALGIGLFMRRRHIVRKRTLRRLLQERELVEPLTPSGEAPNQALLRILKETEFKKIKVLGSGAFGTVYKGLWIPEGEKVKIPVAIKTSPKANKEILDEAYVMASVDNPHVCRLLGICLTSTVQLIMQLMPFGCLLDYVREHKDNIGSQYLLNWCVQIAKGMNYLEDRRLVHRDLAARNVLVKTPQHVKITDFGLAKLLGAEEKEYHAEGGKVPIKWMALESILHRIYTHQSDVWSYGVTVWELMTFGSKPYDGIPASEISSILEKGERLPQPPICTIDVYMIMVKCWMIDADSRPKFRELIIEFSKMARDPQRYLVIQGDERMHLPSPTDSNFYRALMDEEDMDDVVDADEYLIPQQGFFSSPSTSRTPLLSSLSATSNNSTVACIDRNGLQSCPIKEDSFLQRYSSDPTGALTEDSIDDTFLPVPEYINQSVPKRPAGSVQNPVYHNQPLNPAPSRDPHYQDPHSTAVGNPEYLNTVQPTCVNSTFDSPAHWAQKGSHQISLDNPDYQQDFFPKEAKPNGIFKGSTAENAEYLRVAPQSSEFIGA
Sequence of EGFR L858R/T790M (P00533 25-1210 T790M/L858R): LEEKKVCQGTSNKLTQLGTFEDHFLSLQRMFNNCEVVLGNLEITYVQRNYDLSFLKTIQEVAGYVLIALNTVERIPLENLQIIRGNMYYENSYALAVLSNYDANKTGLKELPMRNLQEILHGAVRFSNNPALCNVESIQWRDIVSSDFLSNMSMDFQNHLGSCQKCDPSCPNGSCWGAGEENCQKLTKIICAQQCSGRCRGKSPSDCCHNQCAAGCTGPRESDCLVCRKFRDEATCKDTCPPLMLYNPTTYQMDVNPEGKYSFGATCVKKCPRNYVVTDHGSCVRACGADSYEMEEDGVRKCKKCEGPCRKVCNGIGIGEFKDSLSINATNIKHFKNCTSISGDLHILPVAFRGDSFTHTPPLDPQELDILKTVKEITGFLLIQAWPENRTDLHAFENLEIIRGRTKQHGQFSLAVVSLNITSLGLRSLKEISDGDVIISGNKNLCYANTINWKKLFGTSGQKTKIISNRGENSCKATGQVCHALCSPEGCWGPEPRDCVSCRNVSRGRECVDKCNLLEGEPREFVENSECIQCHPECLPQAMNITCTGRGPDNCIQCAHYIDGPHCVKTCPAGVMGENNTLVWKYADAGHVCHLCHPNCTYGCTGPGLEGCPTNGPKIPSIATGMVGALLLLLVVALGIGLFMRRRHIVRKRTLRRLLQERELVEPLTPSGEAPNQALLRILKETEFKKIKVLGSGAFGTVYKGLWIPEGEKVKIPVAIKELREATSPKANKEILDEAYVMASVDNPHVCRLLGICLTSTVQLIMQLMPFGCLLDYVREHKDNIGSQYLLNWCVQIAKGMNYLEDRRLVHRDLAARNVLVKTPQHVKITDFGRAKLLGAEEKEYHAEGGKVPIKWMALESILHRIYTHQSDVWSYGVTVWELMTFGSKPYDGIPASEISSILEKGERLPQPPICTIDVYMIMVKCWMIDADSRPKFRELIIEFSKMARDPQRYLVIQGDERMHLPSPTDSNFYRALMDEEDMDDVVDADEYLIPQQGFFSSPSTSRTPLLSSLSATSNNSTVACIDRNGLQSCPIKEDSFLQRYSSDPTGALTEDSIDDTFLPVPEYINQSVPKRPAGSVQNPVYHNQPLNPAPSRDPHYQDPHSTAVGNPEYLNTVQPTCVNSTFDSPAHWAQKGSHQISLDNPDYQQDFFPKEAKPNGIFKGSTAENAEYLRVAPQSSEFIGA
Sequence of EGFR L858R (P00533 25-1210 L858R): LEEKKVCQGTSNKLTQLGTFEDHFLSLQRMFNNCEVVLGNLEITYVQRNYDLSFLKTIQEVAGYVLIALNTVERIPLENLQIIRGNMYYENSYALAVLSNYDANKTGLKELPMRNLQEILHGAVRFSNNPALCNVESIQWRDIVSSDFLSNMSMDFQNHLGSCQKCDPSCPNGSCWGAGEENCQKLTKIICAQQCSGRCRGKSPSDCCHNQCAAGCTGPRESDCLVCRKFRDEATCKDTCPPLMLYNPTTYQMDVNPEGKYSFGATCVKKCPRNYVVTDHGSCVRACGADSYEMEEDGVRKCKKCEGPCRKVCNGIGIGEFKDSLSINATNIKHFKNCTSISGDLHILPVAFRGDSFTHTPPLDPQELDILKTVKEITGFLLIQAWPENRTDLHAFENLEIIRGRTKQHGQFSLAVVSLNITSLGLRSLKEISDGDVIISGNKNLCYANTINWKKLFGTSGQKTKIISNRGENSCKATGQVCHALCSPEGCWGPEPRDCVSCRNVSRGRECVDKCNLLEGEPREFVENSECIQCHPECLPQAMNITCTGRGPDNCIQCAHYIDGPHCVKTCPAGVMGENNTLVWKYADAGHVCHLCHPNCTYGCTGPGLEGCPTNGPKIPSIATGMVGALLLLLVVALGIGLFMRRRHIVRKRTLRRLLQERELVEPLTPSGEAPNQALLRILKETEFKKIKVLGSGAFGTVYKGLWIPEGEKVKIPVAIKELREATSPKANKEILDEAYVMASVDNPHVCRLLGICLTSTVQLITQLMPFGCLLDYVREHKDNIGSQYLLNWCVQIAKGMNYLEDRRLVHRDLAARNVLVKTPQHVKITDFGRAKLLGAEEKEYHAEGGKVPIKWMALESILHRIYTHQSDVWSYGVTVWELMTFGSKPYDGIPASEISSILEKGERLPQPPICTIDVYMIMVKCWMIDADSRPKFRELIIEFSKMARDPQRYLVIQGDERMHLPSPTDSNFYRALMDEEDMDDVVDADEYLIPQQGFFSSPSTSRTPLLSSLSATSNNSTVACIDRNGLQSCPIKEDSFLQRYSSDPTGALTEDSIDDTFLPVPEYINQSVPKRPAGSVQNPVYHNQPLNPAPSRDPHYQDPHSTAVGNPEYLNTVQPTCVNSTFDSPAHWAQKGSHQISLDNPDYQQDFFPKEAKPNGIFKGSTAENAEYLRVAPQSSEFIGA

For `C=CC(=O)Nc1cc(Nc2ncc(Cl)c(Nc3ccccc3P(C)(C)=O)n2)c(OC)cc1N1CCC(N2CCC(O)CC2)C1` (stereo not drawn) [Example 39, N-(5-((5-chloro-4-((2-(dimethylphosphoryl)phenyl)amino)pyrimidin-2-yl)amino)-2-(3-(4-hydroxypiperidin-1-yl)pyrrolidin-1-yl)-4-methoxyphenyl)acrylamide], the 50% inhibitory concentration (IC50) in test [1] (setting [7]) was below 50 nM; in test [2] (BAF3 PARENTAL cells (control)), at least 250 nM; in test [3] (EGFR L858R) it was below 50 nM; in test [4] (human EGFR native sequence) it was below 50 nM. The GI50 in test [5] is 101 to 250 nM; in test [6], at least 250 nM.
As to `COc1cc(N2CCOCC2)c(NC(=O)C#CCCN2CCN(C)CC2)cc1Nc1ncc(Cl)c(Nc2ccccc2P(C)(C)=O)n1` [Example 118, N-(5-((5-chloro-4-((2-(dimethylphosphoryl)phenyl)amino)pyrimidin-2-yl)amino)-4-methoxy-2-morpholinophenyl)-5-(4-methylpiperazin-1-yl)pent-2-ynamide], the IC50 in test [1] (setting [8]) was below 50 nM; in test [2] (BAF3 parental cells) it was at least 250 nM; in test [3] (setting [8]) it was below 50 nM; in test [4] (setting [8]) it was below 50 nM. Also, the GI50 in test [5] and in test [6] was below 50 nM throughout.
`COc1ccc(NC(=O)C2=CCCCC2)cc1Nc1ncc(Cl)c(Nc2ccccc2P(C)(C)=O)n1` [Example 79, N-(3-((5-chloro-4-((2-(dimethylphosphoryl)phenyl)amino)pyrimidin-2-yl)amino)-4-methoxyphenyl)cyclohex-1-enecarboxamide]: the concentration for half-maximal inhibition (IC50) in test [1] (setting [7]), in test [2] (BAF3 PARENTAL cells (control)), in test [3] (EGFR L858R) and in test [4] (human EGFR native sequence) was at least 250 nM in each case. In addition, the GI50 in test [5] and in test [6] was at least 250 nM throughout.
As to `C=CC(=O)Nc1cc(Nc2ncc(Cl)c(Nc3ccccc3P(C)(C)=O)n2)c(OC)cc1OCc1ccncc1` [Example 11, N-(5-((5-chloro-4-((2-(dimethylphosphoryl)phenyl)amino)pyrimidin-2-yl)amino)-4-methoxy-2-(pyridin-4-ylmethoxy)phenyl)acrylamide], the half-maximal inhibitory concentration (IC50) was below 50 nM in test [1] (setting [7]), at least 250 nM in test [2] (BAF3 PARENTAL cells (control)), below 50 nM in test [3] (EGFR L858R) and below 50 nM in test [4] (human EGFR native sequence). Further, the figures for the GI50 in test [5] and in test [6] were below 50 nM and 101 to 250 nM, respectively.
Take `C=CC(=O)Nc1cc(Nc2ncc(Cl)c(Nc3ccccc3P(C)(C)=O)n2)c(OC)cc1OCCCN1CCOCC1` [Example 5, N-(5-((5-chloro-4-((2-(dimethylphosphoryl)phenyl)amino)pyrimidin-2-yl)amino)-4-methoxy-2-(3-morpholinopropoxy)phenyl)acrylamide]: the IC50 was below 50 nM in test [1] (setting [7]), at least 250 nM in test [2] (BAF3 PARENTAL cells (control)), below 50 nM in test [3] (EGFR L858R) and 101 to 250 nM in test [4] (human EGFR native sequence). The GI50 in test [5] and in test [6] was 101 to 250 nM each time.
As to `COCC#CC(=O)Nc1ccc(OC)c(Nc2ncc(Cl)c(Nc3ccccc3P(C)(C)=O)n2)c1` [Example 97, N-(3-((5-chloro-4-((2-(dimethylphosphoryl)phenyl)amino)pyrimidin-2-yl)amino)-4-methoxyphenyl)-4-methoxybut-2-ynamide], the IC50 in test [1] (setting [7]) was below 50 nM; in test [2] (BAF3 PARENTAL cells (control)) it was at least 250 nM; in test [3] (EGFR L858R) it was below 50 nM; in test [4] (human EGFR native sequence), below 50 nM. Besides, the GI50 in test [5] and in test [6] was below 50 nM each time.
For `C=C(CN1CCC(N2CCOCC2)CC1)C(=O)Nc1ccc(OC)c(Nc2ncc(Cl)c(Nc3ccccc3P(C)(C)=O)n2)c1` [Example 51, N-(3-((5-chloro-4-((2-(dimethylphosphoryl)phenyl)amino)pyrimidin-2-yl)amino)-4-methoxyphenyl)-2-((4-morpholinopiperidin-1-yl)methyl)acrylamide], the IC50 in test [1] (setting [7]) is below 50 nM; in test [2] (BAF3 PARENTAL cells (control)), at least 250 nM; in test [3] (EGFR L858R), below 50 nM; in test [4] (human EGFR native sequence) it was below 50 nM. Moreover, the GI50 in test [5] and in test [6] was below 50 nM in each case.
On to `COc1ccc(NC(=O)/C=C/C(=O)NCCN(C)C)cc1Nc1ncc(Cl)c(Nc2ccccc2P(C)(C)=O)n1` [Example 58, N1-(3-((5-chloro-4-((2-(dimethylphosphoryl)phenyl)amino)pyrimidin-2-yl)amino)-4-methoxyphenyl)-N4-(2-(dimethylamino)ethyl)fumaramide], for which the IC50 in test [1] (setting [7]) was below 50 nM; in test [2] (BAF3 PARENTAL cells (control)) it was at least 250 nM; in test [3] (EGFR L858R) it was below 50 nM; in test [4] (human EGFR native sequence), below 50 nM. Further, the GI50 in test [5] and in test [6] was at least 250 nM each time.
For the molecule `C=CC(=O)Nc1cc(Nc2ncc(Cl)c(Nc3ccccc3P(C)(C)=O)n2)c(OC)cc1C#CCN(C)C1CCCC1` [Example 168, N-(5-((5-chloro-4-((2-(dimethylphosphoryl)phenyl)amino)pyrimidin-2-yl)amino)-2-(3-(cyclopentyl(methyl)amino)prop-1-yn-1-yl)-4-methoxyphenyl)acrylamide], the IC50 in test [1] (setting [8]), in test [2] (BAF3 parental cells), in test [3] (setting [8]) and in test [4] (setting [8]) was below 50 nM in each case. Also, the GI50 in test [5] and in test [6] was below 50 nM each time.
In the case of `C=CC(=O)Nc1cc(Nc2ncc(Cl)c(Nc3ccccc3P(C)(C)=O)n2)c(OC)cc1N1CCC(N(C)C)C1` (stereo not drawn) [Example 24, N-(5-((5-chloro-4-((2-(dimethylphosphoryl)phenyl)amino)pyrimidin-2-yl)amino)-2-(3-(dimethylamino)pyrrolidin-1-yl)-4-methoxyphenyl)acrylamide], the IC50 is below 50 nM in test [1] (setting [7]), at least 250 nM in test [2] (BAF3 PARENTAL cells (control)), below 50 nM in test [3] (EGFR L858R) and below 50 nM in test [4] (human EGFR native sequence). For the same molecule, the GI50 in test [5] and in test [6] was below 50 nM throughout.
On to `C=CC(=O)Nc1cc(Nc2ncc(Cl)c(Nc3ccccc3P(C)(C)=O)n2)c(OC)cc1CCN1CCN(C)CC1` [Example 74, N-(5-((5-chloro-4-((2-(dimethylphosphoryl)phenyl)amino)pyrimidin-2-yl)amino)-4-methoxy-2-(2-(4-methylpiperazin-1-yl)ethyl)phenyl)acrylamide], for which the IC50 in test [1] (setting [7]) is below 50 nM; in test [2] (BAF3 PARENTAL cells (control)), at least 250 nM; in test [3] (EGFR L858R), below 50 nM; in test [4] (human EGFR native sequence), below 50 nM. Also, the GI50 in test [5] is 101 to 250 nM; in test [6], at least 250 nM.
With `C=CC(=O)Nc1cc(Nc2ncc(C3CC3)c(Nc3ccccc3P(C)(C)=O)n2)c(OC)cc1N(C)CCN(CC)CC` [Example 120, N-(5-((5-cyclopropyl-4-((2-(dimethylphosphoryl)phenyl)amino)pyrimidin-2-yl)amino)-2-((2-(diethylamino)ethyl)(methyl)amino)-4-methoxyphenyl)acrylamide], the IC50 in test [1] (setting [8]) is below 50 nM; in test [2] (BAF3 parental cells) it was at least 250 nM; in test [3] (setting [8]) it was below 50 nM; in test [4] (setting [8]), below 50 nM. The GI50 in test [5] and in test [6] was below 50 nM throughout.
Consider `Cc1ccc(NC(=O)CCl)cc1Nc1ncc(Cl)c(Nc2ccccc2P(C)(C)=O)n1` [Example 148, 2-chloro-N-(3-((5-chloro-4-((2-(dimethylphosphoryl)phenyl)amino)pyrimidin-2-yl)amino)-4-methylphenyl)acetamide], for which the IC50 in test [1] (setting [8]) was below 50 nM; in test [2] (BAF3 parental cells) it was at least 250 nM; in test [3] (setting [8]), below 50 nM; in test [4] (setting [8]), below 50 nM. The GI50 in test [5] and in test [6] was below 50 nM throughout.
As for `C=CC(=O)Nc1cc(Nc2ncc(Cl)c(Nc3ccccc3P(C)(C)=O)n2)c(C)cc1OC(COC)CN(C)C` (stereo not drawn) [Example 143], the IC50 was below 50 nM in test [1] (setting [8]), at least 250 nM in test [2] (BAF3 parental cells), below 50 nM in test [3] (setting [8]) and below 50 nM in test [4] (setting [8]). Moreover, the GI50 in test [5] and in test [6] was below 50 nM each time.
In the case of `COc1cc(F)c(NC(=O)/C=C/Cl)cc1Nc1ncc(Cl)c(Nc2ccccc2P(C)(C)=O)n1` [Example 85, (E)-3-chloro-N-(5-((5-chloro-4-((2-(dimethylphosphoryl)phenyl)amino)pyrimidin-2-yl)amino)-2-fluoro-4-methoxyphenyl)acrylamide], the half-maximal inhibitory concentration (IC50) in test [1] (setting [7]) is below 50 nM; in test [2] (BAF3 PARENTAL cells (control)), at least 250 nM; in test [3] (EGFR L858R) it was below 50 nM; in test [4] (human EGFR native sequence), below 50 nM. Besides, the GI50 in test [5] and in test [6] was below 50 nM throughout.

For orientation: IC50 means the concentration that inhibits the measured activity by half.
